Experimental data published in BindingDB's records for doi:10.3109/14756366.2011.599065 (Wuhan Textile University, 2012).

Columns and labels:
Urease subunit alpha [1] = biological target: Urease subunit alpha (Helicobacter pylori (strain ATCC 700392 / 26695), UniProt P69997); assay: Urease Inhibition Assay; conditions: pH 7.4; 4 °C
Method: (§1) Briefly, 50 mL broth cultures (2.0 × 10^8 CFU/mL) were centrifuged (5000g, 4°C)to collect the bacteria, and after washing twice with phosphate-buffered saline (pH 7.4), the H. pylori precipitation was stored at −80°C. H. pylori was returnedto room temperature, and after the addition of 3 mL of distilled water and protease inhibitors, sonication was performed for 60 s. Following centrifugation(15,000g, 4°C), the supernatant was desalted through SephadexG-25 column (PD-10 columns, Amersham-Pharmacia Biotech, Uppsala, Sweden). The resultant crude urease solution was added to an equal volume of glycerol and stored at 4°C until use in the experiment. The mixture, containing 25 μL (4U) of H. pylori urease (100 mM HEPES, pH 6.8) and 25 μL of the test compounds of various concentrations, was preincubated for 3 h at room temperature in a 96-well assay plate. After preincubation, 0.2 mL of 100 mM HEPES (pH 6.8) buffer containing 500 mM urea and 0.002% phenol red were added and incubated at 37°C.

Urease subunit alpha [2] = biological target: Urease subunit alpha (Helicobacter pylori (strain J99 / ATCC 700824) (Campylobacter pylori J99), UniProt I0ZGT0+I0ZGT1); assay: Urease Inhibition Assay; conditions: pH 7.4; 4 °C
Method: as §1

Sequence of Urease subunit alpha (Helicobacter pylori (strain J99 / ATCC 700824) (Campylobacter pylori J99), UniProt I0ZGT0+I0ZGT1) (I0ZGT1 whole entry): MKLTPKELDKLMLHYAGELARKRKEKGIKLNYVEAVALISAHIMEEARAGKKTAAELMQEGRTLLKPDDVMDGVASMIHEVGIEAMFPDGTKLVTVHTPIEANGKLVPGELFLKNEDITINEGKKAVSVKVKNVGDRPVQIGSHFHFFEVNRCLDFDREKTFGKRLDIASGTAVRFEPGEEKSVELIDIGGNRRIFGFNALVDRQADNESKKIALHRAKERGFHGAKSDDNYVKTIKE
Sequence of Urease subunit alpha (Helicobacter pylori (strain J99 / ATCC 700824) (Campylobacter pylori J99), UniProt I0ZGT0+I0ZGT1) (I0ZGT0 whole entry): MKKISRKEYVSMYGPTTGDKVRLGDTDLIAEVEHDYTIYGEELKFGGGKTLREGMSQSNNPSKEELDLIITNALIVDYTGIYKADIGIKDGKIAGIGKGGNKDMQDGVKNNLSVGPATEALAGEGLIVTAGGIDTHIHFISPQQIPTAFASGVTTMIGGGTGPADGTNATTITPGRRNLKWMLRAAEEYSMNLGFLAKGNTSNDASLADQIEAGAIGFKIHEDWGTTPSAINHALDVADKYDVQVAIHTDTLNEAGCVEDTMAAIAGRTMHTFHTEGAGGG
Sequence of Urease subunit alpha (Helicobacter pylori (strain ATCC 700392 / 26695), UniProt P69997) (P14916 whole entry): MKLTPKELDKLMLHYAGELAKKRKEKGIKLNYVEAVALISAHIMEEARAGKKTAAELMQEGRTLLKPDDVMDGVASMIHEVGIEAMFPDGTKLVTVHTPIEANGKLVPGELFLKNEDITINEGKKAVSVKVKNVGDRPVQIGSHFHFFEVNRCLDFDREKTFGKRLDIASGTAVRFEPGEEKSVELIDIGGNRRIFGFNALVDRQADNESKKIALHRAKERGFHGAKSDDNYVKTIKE
Sequence of Urease subunit alpha (Helicobacter pylori (strain ATCC 700392 / 26695), UniProt P69997) (P69997 whole entry): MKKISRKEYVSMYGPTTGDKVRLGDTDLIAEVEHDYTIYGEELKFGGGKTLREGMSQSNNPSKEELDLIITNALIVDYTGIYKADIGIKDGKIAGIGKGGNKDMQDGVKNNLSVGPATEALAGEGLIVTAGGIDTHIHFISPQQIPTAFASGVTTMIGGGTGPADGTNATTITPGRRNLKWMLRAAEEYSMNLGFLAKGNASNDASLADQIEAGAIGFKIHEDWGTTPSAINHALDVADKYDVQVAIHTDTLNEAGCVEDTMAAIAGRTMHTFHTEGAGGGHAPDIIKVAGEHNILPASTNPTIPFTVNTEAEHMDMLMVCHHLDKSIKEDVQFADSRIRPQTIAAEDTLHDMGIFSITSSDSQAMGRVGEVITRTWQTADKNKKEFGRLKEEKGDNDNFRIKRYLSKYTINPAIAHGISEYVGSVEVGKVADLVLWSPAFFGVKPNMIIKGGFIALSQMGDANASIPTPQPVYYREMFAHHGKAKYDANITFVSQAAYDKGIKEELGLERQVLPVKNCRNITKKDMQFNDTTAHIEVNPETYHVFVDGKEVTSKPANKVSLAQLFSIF

| Compound | IC50 (Urease subunit alpha [1]) | IC50 (Urease subunit alpha [2]) |
| --- | --- | --- |
| NCc1ccccc1 | > 100 µM |  |
| Cc1cnc(C(=O)O)cn1 [5-Methylpyrazine-2-carboxylic acid] |  | > 100 µM |
| Cc1ccc(C(=O)O)cc1 [SAMPL4, O2] | > 100 µM |  |
| CC(=O)NO [acetohydroxamic acid] |  | 42.5 µM |
